Results from US7589089B2, “Inhibitors for GlyT-1” (Hoffmann-La Roche Inc., priority 2006, dated 2009).

Target: T1, mGlyT-1b (Mus musculus, UniProt P28571)
T1 construct: host or cells: Flp-in-CHO
T1 sequence (P28571 1-651 isoform P28571-2): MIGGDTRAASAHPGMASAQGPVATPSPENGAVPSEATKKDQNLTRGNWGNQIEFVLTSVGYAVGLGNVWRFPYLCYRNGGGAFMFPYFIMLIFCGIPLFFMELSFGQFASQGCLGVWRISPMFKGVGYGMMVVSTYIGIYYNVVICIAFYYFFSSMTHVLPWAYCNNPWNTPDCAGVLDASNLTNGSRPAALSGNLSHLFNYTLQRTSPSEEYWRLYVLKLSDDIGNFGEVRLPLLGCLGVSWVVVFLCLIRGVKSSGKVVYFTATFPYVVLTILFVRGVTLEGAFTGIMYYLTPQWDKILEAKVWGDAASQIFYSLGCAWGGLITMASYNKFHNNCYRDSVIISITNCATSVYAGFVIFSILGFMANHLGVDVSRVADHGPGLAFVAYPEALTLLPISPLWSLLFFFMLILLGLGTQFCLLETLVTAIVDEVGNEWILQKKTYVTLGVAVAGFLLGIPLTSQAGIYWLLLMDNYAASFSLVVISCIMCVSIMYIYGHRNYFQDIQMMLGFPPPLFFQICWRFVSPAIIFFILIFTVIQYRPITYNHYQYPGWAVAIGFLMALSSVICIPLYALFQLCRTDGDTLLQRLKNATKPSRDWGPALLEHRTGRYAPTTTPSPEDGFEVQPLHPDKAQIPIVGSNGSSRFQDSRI
Assay: Glycine Uptake Inhibition Assay (mGlyT-1b)
Type: cell-based

Row | Compound | IC50 [nM]
1 | O=C(CN(C(=O)c1ccc(OC(F)(F)F)cc1)c1ccccc1)Nc1ccc(Cl)c(Cl)c1 [Example 114, N-[(3,4-Dichloro-phenylcarbamoyl)-methyl]-N-phenyl-4-trifluoromethoxy-benzamide] | 91
2 | CN(C)c1ccc(C(=O)N(CC(=O)Nc2ccc(Cl)c(Cl)c2)c2ccccc2)cc1 [Example 116, N-[(3,4-Dichloro-phenylcarbamoyl)-methyl]-4-dimethylamino-N-phenyl-benzamide] | 191
3 | COc1ccc(C(=O)N(CC(=O)Nc2ccc(Cl)c(Cl)c2)c2cccc(Cl)c2)cc1 [Example 117, N-(3-Chloro-phenyl)-N-[(3,4-dichloro-phenylcarbamoyl)-methyl]-4-methoxy-benzamide] | 210
4 | O=C(CN(C(=O)COc1ccc(Cl)cc1)c1ccccc1)Nc1ccc(Cl)c(Cl)c1 [Example 118, 2-(4-Chloro-phenoxy)-N-[(3,4-dichloro-phenylcarbamoyl)-methyl]-N-phenyl-acetamide] | 259
5 | O=C(CN(Cc1ccccc1F)C(=O)c1ccc(N2CCOCC2)nc1)Nc1cccc(Cl)c1 [Example 119, N-[(3-Chloro-phenylcarbamoyl)-methyl]-N-(2-fluoro-benzyl)-6-morpholin-4-yl-nicotinamide] | 355
6 | O=C(CN(Cc1ccccc1F)C(=O)c1ccc(Cl)nc1)Nc1cccc(Cl)c1 [Example 120, 6-Chloro-N-[(3-chloro-phenylcarbamoyl)-methyl]-N-(2-fluoro-benzyl)-nicotinamide] | 182
7 | COc1ccc(C(=O)N(CC(=O)Nc2ccc(Cl)c(Cl)c2)C2CCCC2)cc1 [Example 126, N-Cyclopentyl-N-[(3,4-dichloro-phenylcarbamoyl)-methyl]-4-methoxy-benzamide] | 357
